Data taken from US20080187492A1, “Drosophila Models For Diseases Affecting Learning and Memory” (priority 2004, published 2008).

Legend:
[1] = test system: FS flies lacking dfmr1 activity; assay: Short-term memory (60 mins) with mated female targets, FS flies; assay type: in vivo, Drosophila melanogaster; settings: for short-term memory, mated female target: 86 μM MPEP, 400 nM LY341495, 573 μM MPPG, 348 μM MTPG; for memory at 60 minutes post training, mated female target: 5 day old, 8.6 mM MPEP, 400 nM LY341495
Procedure: Effects of drug treatment on short-term memory (60 mins) in flies lacking dfmr1 activity with mated female targets. Short-term (60 min.) memory was measured in Rescue and FS flies that were either fed control food or underwent various drug treatments as described below. Short-term memory was measured by placing a trained male in a holding chamber for 60 minutes (after being trained for one hour with a previously mated female), then subsequently placing him in a testing chamber with a mated female target for a ten-minute courtship interval (C.I.). This C.I. was compared to the C.I. obtained for naïve courtship of a previously mated female, i.e., C.I. during the first 10 minutes of the training session with a previously mated female. Additionally, for reference the C.I. during the last 10 minutes of the training period was also determined. Numbers of flies are indicated above each bar for all groups. The levels of significance are indicated as follows; *=p<0.05; **=p<0.005; ***=p<0.0001.
Restoration of short-term memory with mGluR antagonists. To establish that the failure to observe memory was not due to a problem with recognizing or processing the appropriate cues from the virgin female target, we used a modified version of the conditioned courtship paradigm where the male is paired with a mated female target subsequent to training (Kane et al., 1997; Joiner and Griffith, 1997; Joiner and Griffith, 1999; Kamashev et al., 1999). Again, with pharmacologic treatment it is necessary to utilize more then one compound to confirm the specificity of the target, so in this case we used four mGluR antagonists. […] It is also important to note that the robust deficit in synaptic plasticity in FS flies, with regard to memory, is a critical extension of the previous models of Fragile X syndrome in model organisms, since this is one of the most prominent aspects of the human disorder. Furthermore, we have shown that antagonism of the mGluRs can restore synaptic plasticity in the Drosophila model of Fragile X syndrome.

[2] = test system: FS (dFMR1-3+frame shifted rescue fragment) flies; assay: Naive courtship behavior (courtship index toward virgin female), FS flies; assay type: in vivo, Drosophila melanogaster; settings: for naive courtship: MPEP 20 μg/ml, LY341495 400 nM in food
Excerpt: Learning and memory (cognitive abilities) can be examined in Drosophila by utilizing several available learning and memory paradigms. The most popular is a classical conditioning paradigm in which the flies learn to associate electric shocks with olfactory cues (Dudia et al, 1976; Davis, 1993; Tully, 1994). An alternative paradigm to study learning and memory in Drosophila is called conditioned courtship, wherein a male fly learns to modify his courtship behavior after experience with an unreceptive female; it is a multi-sensory paradigm involving associations from more then one sensory input (Siegel and Hall, 1979; for review see Hall, 1994). It is a more complex associative learning paradigm and was utilized to assay learning and memory in this article to elucidate the role of dFMR1 in learning and memory (Tompkins et al, 1980; Tompkins et al, 1982; Tompkins et al, 1983; Tompkins et al, 1984; Ackerman and Siegel, 1986). Courting male flies perform a characteristic sequence of behaviors: orienting toward and following the female, tapping her with his forelegs, vibrating one or both wings, licking her genitalia, and attempting copulation (Sturtevant, 1915; Bastock and Manning, 1955; Bastock, 1956). These behaviors are repeated with some variation until successful copulation occurs. Virgin females will generally respond by mating; however, recently mated females will be unreceptive and will not allow copulation to occur (Spieth, 1974), they display different behaviors (Bastock and Manning, 1955; Connolly and Cook, 1973) and have an altered, although somewhat overlapping, pheromonal profile (Cobb and Ferveur, 1996). The naive male will find a previously mated female to have a pheromonal repertoire that is less provocative then that of a virgin female target. A naive male paired with a mated female will initially court her, but his courtship activity soon decreases; after 1 hour of experience with the mated female, his courtship when subsequently paired with a virgin female remains depressed for 2-3 hours (Siegel and Hall, 1979). This effect is not a general suppression of all courtship activity since a male's tendency to court an immature male is not suppressed (Gailey et al, 1984). […] These behaviors are quantified as a courtship index (CI) which is defined as the percentage of time a male fly spends performing any of the six courtship steps toward a target female in a ten minute test period. A decrease in CI after training with a previously mated female is indicative of behavioral plasticity in the form of learning or memory.
Since we use female targets that are not etherized (therefore they are freely moving), and the w118 and dfmr1-3 flies may have slightly impaired visual acuity due to lack of eye pigmentation, and since visual inputs affect courtship behavior, all subsequent experiments were done utilizing only the genotypes Rescue: dfmr1-3+wild type rescue fragment, and FS: dfmr1-3+frame shifted rescue fragment. Both of these genotypes have more pigmentation and similar levels of eye pigmentation to each other. For FIGS. 4 and 5, a high concentration of MPEP (1,000 μg/ml) was used. For the remainder of the experiments the food was either control (CT) or exactly the same control food containing the appropriate concentration of MPEP (M). The position of the CT and the M are indicative of the point at which the group was on the particular food. The first letter indicates the food type that the larvae grew up on, and the second letter denotes the food type that the adult flies were placed on within four hours of eclosion, […] fresh food.
Naive males were placed in the training chamber for one hour with no female, and then placed with a virgin target female for a ten-minute interval. The naive courtship behavior was reduced by high MPEP concentration in Rescue (p<0.0001) and FS (p<0.0005) lines, and it was depressed to similar levels by high MPEP treatment in the Rescue and FS groups (FIG. 2A). […]

Row | SMILES | short-term memory, mated female target [1] | memory at 60 minutes post training, mated female target [1] | naive courtship activity ([2]; 5 day old adults, 573 mM MPPG (p<0.0001) or 348 μM MTPG (p<0.005)) | naive courtship ([2]; 5 day old) | naive courtship activity ([2]; 20-day-old, MPEP (86.6 μM) in adulthood only (CT-M)) | naive courtship activity ([2]; 20-day-old, MPEP (86.6 μM) in development and adulthood (M-M)) | naive courtship activity ([2]; 20-day-old, MPEP (86.6 μM) in development only (M-CT)) | naive courtship activity ([2]; 5 day old, MPEP 200 μg/ml (86.6 μM) in development, with or without adulthood (M-M, M-CT)) | naive courtship activity ([2]; 5 day old, MPEP 200 μg/ml (86.6 μM) in food in adulthood only (CT-M), p<0.005) | naive courtship behavior ([2]; 5 day old, MPEP 1,000 μg/ml (433.0 μM) in food in adulthood (CT-M))
1 | CC(N)(C(=O)O)c1ccc(-c2nnn[nH]2)cc1 (racemic) [MTPG, (RS)-α-methyl-4-tetrazolylphenylglycine] | demonstrated restoration of short-term memory | demonstrate memory at 60 minutes post training | significant increase in courtship activity |  |  |  |  |  |  | 
2 | N[C@](CC1c2ccccc2Oc2ccccc21)(C(=O)O)[C@H]1C[C@@H]1C(=O)O [LY341495, (2S)-2-amino-2-[(1S,2S)-2-carboxycycloprop-1-yl]-3-(xanth-9-yl) propionic acid] | demonstrated restoration of short-term memory | demonstrate memory at 60 minutes post training |  | significantly increased naive courtship |  |  |  |  |  | 
3 | Cc1cccc(C#Cc2ccccc2)n1 [MPEP, 2-methyl-6-(phenylethynyl)pyridine] | demonstrated restoration of short-term memory | demonstrate memory at 60 minutes post training |  | significantly increased naive courtship | significant increase in courtship activity | significant increase in courtship activity | did not demonstrate an increase in naive courtship activity | courtship levels similar to CT-CT Rescue flies | significant increase in courtship activity | reduced
